# Assay results as given in patent US20070099851A1, “Stable analogues of ribose-1-phosphate and methods for treating diabetes and other metabolic disorders” (priority 2004, published 2007).
# Read-outs that look alike come from different tables or passages of the source. Marks after values point to notes of the source that are not given here.
# How the values were obtained:
# [1] = biological target: T1, human purine nucleoside phosphorylase (Homo sapiens, UniProt P00491); details: background statement; cited from earlier work
# T1 sequence (P00491 1-289): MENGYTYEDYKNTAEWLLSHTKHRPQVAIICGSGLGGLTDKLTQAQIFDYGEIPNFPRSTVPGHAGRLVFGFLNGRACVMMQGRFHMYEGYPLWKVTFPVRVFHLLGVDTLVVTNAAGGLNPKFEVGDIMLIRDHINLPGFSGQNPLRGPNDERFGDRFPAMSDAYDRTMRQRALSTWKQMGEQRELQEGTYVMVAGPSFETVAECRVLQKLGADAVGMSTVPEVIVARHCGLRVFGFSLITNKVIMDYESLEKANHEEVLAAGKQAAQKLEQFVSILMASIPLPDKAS
# Zucker (fa/fa) rats = assay: Glucose tolerance test in diabetic Zucker (fa/fa) rats; assay type: in vivo, rat; details: for Blood Glucose at 120 minutes: fasted Zucker (fa/fa) rats, IP glucose 1.5 g/kg
# Method: Thirty-six 16 wk old male Zucker (fa/fa) rats were randomly assigned to one of the following groups: • 1. Vehicle (0.9% NaCl) • 2. Metformin—320 mg/kg • 3. Compound 1.1—10 mg/kg Acid • 4. Compound 1.1—100 mg/kg Acid • 5. Compound 3.1—10 mg/kg Ester • 6. Compound 3.1—100 mg/kg Ester
# Animals were fasted for 16-18 hr and lightly anesthetized with a mixture of ketamine/xylazine at a dose of 0.5 ml/kg (45 mg/kg ketamine, 5 mg/kg xylazine). Animals received their respective treatments via IP injection (1.5 ml/kg) followed by an IP injection of glucose at 1.5 g/kg. Blood glucose was measured at 0, 30, 60, 90, and 120 minutes post-glucose.
# HL-60, Leukemia = assay: Anticancer activity, HL-60; assay type: cell-based
# 6-phosphofructo-1-kinase [2] = assay: Activation of 6-phosphofructo-1-kinase; assay type: biochemical; details: for Ka: concentration giving half-maximal activation
# Source text: (§1) Studies of Compound 2 have shown that it activates 6-phosphofructo-1-kinase (6PF1K) and inhibits fructose-1,6-bisphosphatase (FBPase). […] It is well known that by increasing the rate of glycolysis, the rate of gluconeogenesis decreases (Hanson et al. (1984) J. Biol. Chem. 259, 218-223).
# Ka is the concentration of substrate giving half-maximal activation.
# 6-phosphofructo-1-kinase [3] = details: background statement; cited from earlier work
# FAO hepatoma cells [4] = details: background statement; cited from earlier work
# FAO hepatoma cells [5] = assay: Inhibition of glucose production in FAO cells; assay type: cell-based; details: for Percent inhibition of glucose production: FAO cells
# Source text: as §1
# [6] = biological target: T2, Fructose-1,6-bisphosphatase (Homo sapiens, UniProt P09467); assay: Inhibition of fructose-1,6-bisphosphatase; assay type: biochemical
# T2 sequence (P09467 2-338 limits assumed): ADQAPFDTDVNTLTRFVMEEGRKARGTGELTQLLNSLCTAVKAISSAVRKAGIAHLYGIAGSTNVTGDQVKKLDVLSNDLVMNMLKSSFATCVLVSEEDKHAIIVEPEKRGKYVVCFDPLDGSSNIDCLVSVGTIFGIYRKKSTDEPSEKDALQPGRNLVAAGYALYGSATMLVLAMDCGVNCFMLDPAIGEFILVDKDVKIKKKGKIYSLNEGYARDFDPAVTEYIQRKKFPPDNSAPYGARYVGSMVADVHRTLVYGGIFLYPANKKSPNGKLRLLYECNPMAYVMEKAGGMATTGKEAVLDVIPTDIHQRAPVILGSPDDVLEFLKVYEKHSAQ
# Source text: as §1
# [7] = biological target: T2, Fructose-1,6-bisphosphatase; details: background statement; cited from earlier work
# [8] = tested on: INS-1 clonal pancreatic B-cells; assay: Stimulation of insulin secretion in INS-1 cells; assay type: cell-based; details: for Insulin release greater compared to controls: 3 mM glucose, 500 μM compound, overnight; for Activating effect on insulin release, in words: 16 mM glucose
# Method: INS-1 clonal pancreatic B-cells were grown in well plates or T-25 flasks incubated overnight with INS-1 cell media with 3 mM glucose and 500 μM of compound 3 or compound 4. Insulin samples were collected for 10 minutes at 18 second intervals. Insulin release was greater for both compound 3.1 and compound 4.1 compared to controls, by about 50 percent, under these conditions. At 16 mM glucose the activating effect disappeared.
# Rh1, Ewing Sarcoma = assay: Anticancer activity, Rh1; assay type: cell-based
# [9] = biological target: T3, calf spleen purine nucleoside phosphorylase (Bos taurus, UniProt P55859); assay: Inhibition of calf spleen purine nucleoside phosphorylase (cPNP); assay type: biochemical; details: for cPNP activity: 27 μM compound
# T3 construct: from tissue; host or cells: calf spleen
# T3 sequence (P55859 1-289): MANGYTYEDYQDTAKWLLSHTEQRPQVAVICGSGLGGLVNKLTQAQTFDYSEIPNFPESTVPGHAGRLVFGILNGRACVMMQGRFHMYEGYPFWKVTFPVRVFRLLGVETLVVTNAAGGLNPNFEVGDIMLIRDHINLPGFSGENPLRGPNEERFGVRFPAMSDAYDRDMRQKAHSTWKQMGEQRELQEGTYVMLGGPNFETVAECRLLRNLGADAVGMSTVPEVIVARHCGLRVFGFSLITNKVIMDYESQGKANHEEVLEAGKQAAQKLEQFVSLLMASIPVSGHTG
# Method: Compound 4.1 (27 μM) was incubated with calf spleen purine nucleoside phosphorylase with increasing concentrations of inorganic phosphate.
# HTC hepatoma cells = assay: Inhibition of intracellular lipid synthesis in HTC hepatoma cells; assay type: cell-based; details: 500 μM; for Cholesterol: control 48; for Triglyceride: control 60
structure (smiles),measurement,setting,value
O=P(O)(O)OC1O[C@H](CI)[C@@H](O)[C@H]1O (stereo partly shown) [5-iodo-ribose-1-phosphate],"Effect on human purine nucleoside phosphorylase, in words",[1],inhibits
"O=P(O)(O)CC1OC(CO)C(O)C1O (stereo not shown) [Compound 1.1, ribose-1-methylenephosphonate]",Blood Glucose at 120 minutes,Zucker (fa/fa) rats; 10 mg/kg IP,460 mg/dL
same,Blood Glucose at 120 minutes,Zucker (fa/fa) rats; 100 mg/kg IP,400 mg/dL
same,"Effect on blood glucose levels, in words","Zucker (fa/fa) rats; fasted diabetic Zucker (fa/fa), injected, glucose challenge",reduce blood glucose levels
same,IC50,"HL-60, Leukemia",170 µM
"O=P(O)(O)CC1OC(COP(=O)(O)O)C(O)C1O (stereo not shown) [Compound 2.1, 5-phosphoribosyl-1-methylenephosphonate]","Effect on 6-phosphofructo-1-kinase (6PF1K), in words",6-phosphofructo-1-kinase [2],activates
same,Ka,6-phosphofructo-1-kinase [2],6.5 µM
same,Blood Glucose at 120 minutes,Zucker (fa/fa) rats; 10 mg/kg IP,500 mg/dL
same,Blood Glucose at 120 minutes,Zucker (fa/fa) rats; 100 mg/kg IP,500 mg/dL
same,Ka,6-phosphofructo-1-kinase [3],6.5 µM
same,"Glucose production in cultured hepatoma cells (FAO), in words",FAO hepatoma cells [4],inhibit glucose production
same,Percent inhibition of glucose production,FAO hepatoma cells [5]; 60 μM,20 ± 15%
same,Percent inhibition of glucose production,FAO hepatoma cells [5]; 100 μM (last row of the table),60 ± 15%
same,Percent inhibition of glucose production,FAO hepatoma cells [5]; 125 μM,35 ± 10%
same,Percent inhibition of glucose production,FAO hepatoma cells [5]; 250 μM,40 ± 10%
same,Percent inhibition of glucose production,FAO hepatoma cells [5]; 500 μM,35 ± 10%
same,"Glucose production in FAO hepatoma cells, in words",FAO hepatoma cells [5]; incubated with FAO hepatoma cells,inhibits glucose production
same,"Effect on fructose-1,6-bisphosphatase (FBPase), in words",[6],inhibits
same,Ki,"[6]; At 5 μM Fru-1,6-bisphosphate",87 µM
same,Maximum Decrease in Activity,"[6]; At 5 μM Fru-1,6-bisphosphate",50%
same,Ki,"[6]; At 20 μM Fru-1,6-bisphosphate",87 µM
same,Maximum Decrease in Activity,"[6]; At 20 μM Fru-1,6-bisphosphate",50%
same,Ki,[7],85 µM
"CCOP(=O)(CC1OC(CO)C(O)C1O)OCC (stereo not shown) [Compound 3.1, ribose-1-methylenediethylphosphonate]",Insulin release greater compared to controls,[8],about 50%
same,"Activating effect on insulin release, in words",[8],disappeared
"O=P(O)(O)C(F)(F)C1OC(CO)C(O)C1O (stereo not shown) [Compound 4.1, ribose-1-difluoromethylenephosphonate]",IC50,"Rh1, Ewing Sarcoma",170 µM
same,cPNP activity,"[9]; Pi 20 μM, control 170",18* arbitrary units
same,cPNP activity,"[9]; Pi 50 μM, control 237",31 arbitrary units
same,cPNP activity,"[9]; Pi 200 μM, control 298",96 arbitrary units
same,cPNP activity,"[9]; Pi 1500 μM, control 327",176 arbitrary units
same,"Mode of inhibition of cPNP, in words","[9]; 27 μM, increasing inorganic phosphate",likely a competitive inhibitor of cPNP
same,Insulin release greater compared to controls,[8],about 50%
same,"Activating effect on insulin release, in words",[8],disappeared
same,Cholesterol,HTC hepatoma cells,39 μg/mg protein
same,Triglyceride,HTC hepatoma cells,44 μg/mg protein
same,Decrease in cholesterol levels compared to control,HTC hepatoma cells; overnight,~20%
same,Decrease in triglyceride levels compared to control,HTC hepatoma cells; overnight,26%
"CN(C)C(=N)N=C(N)N [Metformin, reference compound]",Blood Glucose at 120 minutes,Zucker (fa/fa) rats; 320 mg/kg IP,400 mg/dL
same,Cholesterol,HTC hepatoma cells,38 μg/mg protein
same,Triglyceride,HTC hepatoma cells,42 μg/mg protein
"O=P(O)(O)OC[C@H]1O[C@@](CO)(OP(=O)(O)O)[C@@H](O)[C@@H]1O [fructose-2,6-bisphosphate, reference compound]",Ka,6-phosphofructo-1-kinase [2],0.09 µM
"O=P(O)(O)OC[C@H]1OC(OP(=O)(O)O)[C@H](O)[C@@H]1O (stereo partly shown) [ribose-1,5-bisphosphate, reference compound]",Ka,6-phosphofructo-1-kinase [2],3.5 µM
same,Ki,"[6]; At 5 μM Fru-1,6-bisphosphate",87 µM
same,Maximum Decrease in Activity,"[6]; At 5 μM Fru-1,6-bisphosphate",50%
same,Ki,"[6]; At 20 μM Fru-1,6-bisphosphate",87 µM
same,Maximum Decrease in Activity,"[6]; At 20 μM Fru-1,6-bisphosphate",50%
